Assay results published in patent US20100305198A1, “CATIONIC LIPIDS” (THE UNIVERSITY COURT OF THE UNIVERSITY OF EDINBURG, priority 2007, published 2010).

Legend:
[1] = tested on: B16F10 mouse melanoma cells; test: Transfection of pEGFP-C1 into B16F10 cell line (flow cytometry); format: cell-based
Protocol: (§1) The corresponding cationic lipid 6a-l (1 mM in methanol) with or without DOPE (1 mM in methanol) were mixed in different proportions and the organic solvent removed by evaporation in an oven (37° C.) overnight. The resultant thin films were then hydrated with PBS. The solutions were vortexed (10-20 s) and incubated at ambient temperature for 30 min. Plasmid DNA or siRNA solution (0.04 mg/mL in PBS or another isotonic solution) was subsequently added and the solution vortexed (10-20 s). The lipoplexes were incubated at room temperature for 30 min before being used.

[2] = tested on: HeLa cells; test: Transfection of pEGFP-C1 into HeLa cell line (GFP expression by flow cytometry); format: cell-based, Human
Protocol: as §1
Human HeLa cells were grown in RPMI supplemented with 4 mM glutamine, 10% FCS and 100 units/ml penicillin/streptomycin (RPMI-CM) until 80% confluence. Cells were then suspended using trypsin/EDTA and counted. 2×10^4 cells in 150 μL of RPMI-CM per well were seeded in 96 well plates and incubated overnight. The day afterwards, the different lipoplex formulations were added. Each experiment was performed in quadruplicate, using Effectene® Transfection Reagent (Qiagen) and Lipofectamine™ 2000 (Invitrogen) as positive control and untreated cells as negative control.
After incubation for two days at 37° C. and 5% CO2 (the change of media after transfection was not necessary), the green fluorescent protein (GFP) expression, consequence of transfecting the pEGFP-C1, was evidenced using a fluorescent microscope (Leica) and measured by flow cytometry. For the flow cytometry analysis, cells were washed twice with PBS, detached with trypsin/EDTA, harvested with 2% ferum bovine serum (FBS) in PBS, centrifuged and resuspended with 2% FBS in PBS and analyzed using a BD FACSaria flow cytometer. Transfection efficiency was measured as percentage of transfected cells and total mean fluorescence. […] The number of cells analyzed per sample was 10,000. […] Each point represents a cell. The second column of graphs represents cell number in the y-axis and fluorescence intensity in the x-axis. All the graphs have been divided into two populations of cells according with the fluorescence intensity in order to give a reference for the transfection analysis: in the untransfected cell control P1 comprises 95% of the total number of cells analyzed; when cells are transfected with compound 6f P1 comprises 19.1% of the total number of cells analyzed; within the cells transfected with Effectene® Transfection Reagent P1 comprises 35.8% of the total number of cells analyzed; when cells transfected with Lipofectamine™ 2000, P1 comprises 49.8% of the total number of cells analyzed. FITC-A Mean is the mean fluorescence (arbitrary units) calculated for each population. The mean fluorescence calculated for P2 of the cells transfected with compound 6f is 120,059, which is, by far, the best result of (A)-(D).

[3] = tested on: human embryonic kidney (HEK) 293T cell line; test: Transfection of pEGFP-C1 into HEK293T cell line (flow cytometry); format: cell-based
Protocol: as §1

[4] = tested on: GFP-expressing mES cells; test: Transfection of siRNA into GFP-expressing mouse stem cells (GFP knock-down, flow cytometry); format: cell-based; conditions: 48 h
Protocol: as §1
mES cells were grown in GMEM supplemented with 4 mM glutamine and 10% FBS in the absence of antibiotic until 80% confluence. Cells were then suspended using trypsin/EDTA and counted. 2×10^4 cells in 150 μL of GMEM-CM per well were seeded in 96-well plates and incubated overnight. The day afterwards, the different lipoplex formulations were added. […]
After incubation for two days at 37° C. and 5% CO2 (change of media after transfection was not necessary), the green fluorescent protein (GFP) reduced expression was measured by flow cytometry. For the flow cytometry analysis, cells were washed twice with PBS, detached with trypsin/EDTA, harvested with 2% FBS in PBS, centrifuged and resuspended with 2% FBS in PBS and analyzed using a BD FACSaria flow cytometer. […] In Vivo Transfection and Non-Invasive Luminescence Imaging from Living Mice

[5] = tested on: mouse lung; test: In vivo transfection of luciferase-reporter plasmid (pLux) by intratracheal instillation and non-invasive luminescence imaging
Protocol: Mice were anesthetized and intubated following standard protocols. 16 μg of a luciferase-reporter plasmid (pLux, 4-6 mg/mL in PBS or another isotonic buffer) was complexed with Oleyl derivative 6i (N/P 12, 1:2 mol mixture with DOPE) following the protocol described before. Lipoplex formulation (total volume=50 μL) and naked plasmid (16 μg of plasmid in 50 μL of PBS) were then administrated into the lung by direct intratracheal instillation through peroral intubation.
Firefly luciferin (15 mg/kg) was intraperitoneally administrated to the anesthetized mice half an hour before scanning for luminescence. Mice were then imaged every 2 minutes using an IVIS SPECTRUM imaging device. FIGS. 9 and 10 show the non-invasive in vivo luminescence imaging of anesthetized mice transfected with 16 μg of a luciferase-reporter plasmid (pLux) complexed with derivative 6i (left mouse) and naked plasmid (right mouse) 72 and 120 hours after instillation respectively.

Structure (SMILES) | % of GFP-expressing cells calculated via flow cytometry [1] | P1 population as % of the total number of cells analyzed ([2]; HeLa 48 h after transfection with reporter plasmid, 10,000 cells per sample, P1 = 95% in untransfected control, 6f at N/P 12, 1:2 mol mixture with DOPE) | Mean fluorescence (FITC-A Mean) calculated for P2 ([2]; HeLa 48 h after transfection, N/P 12, 1:2 mol mixture with DOPE) | Transfection of HeLa cells compared with the positive controls (Lip2000 and Effectene) ([2]; pEGFP-C1, 48 h, N/P ratio 12, 1:2 mol mixture with DOPE) | % of GFP-expressing cells calculated via flow cytometry [3] | Knock-down of GFP expression compared with Lipofectamine 2000 ([4]; GFP-expressing mES cells) | Knock-down of GFP expression ([4]; GFP-transformed mouse stem cells, N/P 12, 1:2 mol mixture with DOPE, preliminary assays) | In vivo luminescence after luciferin ([5]; 16 μg pLux complexed with lipid (N/P 12, 1:2 mol mixture with DOPE), intratracheal instillation, 72 and 120 hours after instillation) | Health of mice during the study ([5]; lipoplex instilled into the lung, followed on a daily basis) | Percentage of transfected (GFP-expressing, fluorescent) cells ([2]; HeLa 48 hours after transfection with GFP-reporter plasmid, FIG. 6)
CCCCCCCCCCCCCCC(=O)NC(COC(=O)CCCN)(COC(=O)CCCN)COC(=O)CCCN [Compound 6f, N-[tris-(4-aminobutiryloximethyl)methyl]pentadecamide] | 43% | 19.1% | 120,059 arbitrary units | much better than the two positive controls | 62% | better than Lipofectamine™ 2000 | 40% | – | – | –
CCCCCCCCC=CCCCCCCCC(=O)NC(COC(=O)CCCN)(COC(=O)CCCN)COC(=O)CCCN [Compound 6i, N-[tris-(4-aminobutiryloximethyl)methyl]-9-octadecenamide] | 61% | – | – | – | 54% | – | – | positive luminescence was detected | behaved healthily | –
CCCCCCCCC=CCCCCCCCCOC(=O)CCC(=O)NC(COC(=O)CCCN)(COC(=O)CCCN)COC(=O)CCCN [Compound 13b, 9-octadecenyl [tris(4-aminobutanoyloxymethyl)methyl]amidosuccinate] | – | – | – | – | – | – | – | – | – | 79%
